Experimental data from US12643879B2, “Functionalized heterocyclic compounds as modulators of stimulator of interferon genes (STING)” (RYVU THERAPEUTICS S.A., priority 2019, dated 2026).
Where a name gives a salt, the structure may show the parent alone. Read-outs that look alike come from different tables or passages of the source. Blank lines part the entries; values can stand above or below the compound they belong to.

Tests used:
[1] = test system: interferon regulatory factor (IRF) pathway in THP-1 dual cells; test: THP-1 Dual reporter assay, IRF pathway (luciferase); assay type: cell-based; conditions: 18 h stimulation, luminescence, read-out: THP1 Dual EC50 (μM) IRF
Protocol: (§1) Compounds of the present invention were tested for their activity using THP-1 dual cells (Invivogen, cat no. thpd-nfis) allowing for simultaneous study of NF-κB pathway and the interferon regulatory factor (IRF) pathway. THP-1 dual cells contain luciferase reporter gene under the control of an ISG54 (interferon-stimulated gene) minimal promoter in conjunction with five interferon-stimulated response elements and a secreted embryonic alkaline phosphatase reporter gene under the control an IFN (interferon)-β minimal promoter fused to five copies of the NF-κB consensus transcriptional response element with three copies of the c-Rel binding site. Following 18 h of stimulation with STING agonist, medium was collected and transferred onto fresh cell culture plate. To verify activity of the IRF pathway, luminescence activity was measured with standard laboratory plate reader immediately after addition 10 μl of the medium to 40 or 50 μl of luminescence reagent (Invivogen, cat. No. rep-qlc2). To verify activity of NF-κB pathway, 10 or 20 μl of the medium was mixed with 80 μl of a detection medium (Invivogen, cat. No. rep-qb2) and incubated for 1 or 2 hours at 37° C. in a humidified atmosphere containing 5% CO2. Next, absorbance at 630 or 655 nm was recorded using standard laboratory plate reader.

[2] = test system: NF-κB pathway in THP-1 dual cells; test: THP-1 Dual reporter assay, NF-κB pathway (SEAP); assay type: cell-based; conditions: Homo sapiens, THP1-Dual; 18 h stimulation, absorbance at 630 or 655 nm; read-out: THP1 Dual EC50 (μM) NFkB
Protocol: as §1

- EC50 ([1]; Homo sapiens, THP1-Dual): < 1 µM
- EC50 [2]: < 1 µM
SMILES: C#CCOCCOCCOCCOCCOCCC(=O)O[C@H]1CCCN(c2cc3c(cc2F)c(=O)c(CN(Cc2ccnc(C)c2)[C@H]2CCCN(c4ccc(C)nc4)C2)cn3C2CC2)C1 [Example 31A, (3S)-1-[1-cyclopropyl-6-fluoro-3-({[(3S)-1-(6-methylpyridin-3-yl)piperidin-3-yl][(2-methylpyridin-4-yl)methyl]amino}methyl)-4-oxo-1,4-dihydroquinolin-7-yl]piperidin-3-yl 4,7,10,13,16-pentaoxanonadec-18-ynoate]

- EC50 ([1]; Homo sapiens, THP1-Dual): < 1 µM
- EC50 [2]: < 1 µM
SMILES: C#CCOCCOCCOCCOCCOCCC(=O)Nc1ccc(N2CCC[C@H](N(Cc3ccnc(OC)c3)Cc3cn(C4CC4)c4cc(F)c(F)cc4c3=O)C2)cn1 [Example 4A, N-{5-[(3S)-3-{[(1-cyclopropyl-6,7-difluoro-4-oxo-1,4-dihydroquinolin-3-yl)methyl][(2-methoxypyridin-4-yl)methyl]amino}piperidin-1-yl]pyridin-2-yl}-4,7,10,13,16-pentaoxanonadec-18-ynamide]

- EC50 ([1]; Homo sapiens, THP1-Dual): 1 to 10 µM
- EC50 [2]: 1 to 10 µM
SMILES: Cc1ccc(N2CCC[C@H](N(Cc3ccnc(C)c3)Cc3cn(C4CC4)c4cc(N5CC[C@H](CNC(=O)CCOCCOCCOCCOCCN)C5)c(F)cc4c3=O)C2)cn1 [Example 15A, 1-amino-N-{[(3R)-1-[1-cyclopropyl-6-fluoro-3-({[(3S)-1-(6-methylpyridin-3-yl)piperidin-3-yl][(2-methylpyridin-4-yl)methyl]amino}methyl)-4-oxo-1,4-dihydroquinolin-7-yl]pyrrolidin-3-yl]methyl}-3,6,9,12-tetraoxapentadecan-15-amide]

- EC50 ([1]; Homo sapiens, THP1-Dual): > 10 µM
- EC50 [2]: > 10 µM
SMILES: Cc1ccc(N2CCC[C@H](N(Cc3ccnc(C)c3)Cc3cn(C4CC4)c4cc(OCCNC(=O)OCc5ccc(NC(=O)[C@H](CCCNC(N)=O)NC(=O)[C@@H](NC(=O)CCOCCOCCOCCN=[N+]=[N-])C(C)C)cc5)c(F)cc4c3=O)C2)cn1 [Example 10A, {4-[(2S)-2-[(2S)-2-(3-{2-[2-(2-azidoethoxy)ethoxy]ethoxy}propanamido)-3-methyl-butanamido]-5-(carbamoylamino)pentanamido]phenyl}methyl N-(2-{[1-cyclopropyl-6-fluoro-3-({[(3S)-1-(6-methylpyridin-3-yl)piperidin-3-yl][(2-methylpyridin-4-yl)methyl]amino}methyl)-4-oxo-1,4-dihydroquinolin-7-yl]oxy}ethyl)carbamate]

- EC50 ([1]; Homo sapiens, THP1-Dual): > 10 µM
- EC50 [2]: > 10 µM
SMILES: Cc1ccc(N2CCC[C@H](N(Cc3ccnc(C)c3)Cc3cn(C4CC4)c4cc(OCCN(C)C(=O)OCc5ccc(NC(=O)[C@H](CCCNC(N)=O)NC(=O)[C@@H](NC(=O)CCOCCOCCOCCN=[N+]=[N-])C(C)C)cc5)c(F)cc4c3=O)C2)cn1 [Example 11H, {4-[(2S)-2-[(2S)-2-(3-{2-[2-(2-azidoethoxy)ethoxy]ethoxy}propanamido)-3-methyl-butanamido]-5-(carbamoylamino)pentanamido]phenyl}methyl N-(2-{[1-cyclopropyl-6-fluoro-3-({[(3S)-1-(6-methylpyridin-3-yl)piperidin-3-yl][(2-methylpyridin-4-yl)methyl]amino}methyl)-4-oxo-1,4-dihydroquinolin-7-yl]oxy}ethyl)-N-methylcarbamate]

Continued, compound first:

SMILES: Cc1cc(CN(Cc2cn(C3CC3)c3cc(OCCO)c(F)cc3c2=O)[C@H]2C[C@H](F)CN(c3cnccn3)C2)ccn1 [Example 95, 1-cyclopropyl-6-fluoro-3-({[(3S,5S)-5-fluoro-1-(pyrazin-2-yl)piperidin-3-yl][(2-methylpyridin-4-yl)methyl]amino}methyl)-7-(2-hydroxyethoxy)-1,4-dihydroquinolin-4-one hydrochloride]
- EC50 ([1]; Homo sapiens, THP1-Dual): < 1 µM
- EC50 [2]: < 1 µM

SMILES: Cc1cc(CN(Cc2cn(C3CC3)c3cc(OCCO)c(F)cc3c2=O)[C@H]2CCCN(c3cncc(F)c3)C2)ccn1 [Example 90, 1-cyclopropyl-6-fluoro-3-({[(3S)-1-(5-fluoropyridin-3-yl)piperidin-3-yl][(2-methylpyridin-4-yl)methyl]amino}methyl)-7-(2-hydroxyethoxy)-1,4-dihydroquinolin-4-one hydrochloride]
- EC50 ([1]; Homo sapiens, THP1-Dual): < 1 µM
- EC50 [2]: < 1 µM

SMILES: Cc1ccc(N2CCC[C@H](N(Cc3ccnc(C)c3)Cc3cn(C4CC4)c4cc(N5CC[C@H](O)C5)c(F)cc4c3=O)C2)cn1 [Example 39, 1-cyclopropyl-6-fluoro-7-[(3S)-3-hydroxypyrrolidin-1-yl]-3-({[(3S)-1-(6-methylpyridin-3-yl)piperidin-3-yl][(2-methylpyridin-4-yl)methyl]amino}methyl)-1,4-dihydroquinolin-4-one hydrochloride]
- EC50 ([1]; Homo sapiens, THP1-Dual): < 1 µM
- EC50 [2]: < 1 µM

SMILES: Cc1ccc(N2CCC[C@H](N(Cc3ccnc(C)c3)Cc3cn(C4CC4)c4cc(N5CCO[C@H](CO)C5)c(F)cc4c3=O)C2)cn1 (single isomer, unassigned) [Example 73]
- EC50 ([1]; Homo sapiens, THP1-Dual): < 1 µM
- EC50 [2]: < 1 µM

SMILES: Cc1cc(CN(Cc2cn(C3CC3)c3cc(N4CC[C@@H](CO)C4)c(F)cc3c2=O)[C@H]2CCCN(c3cnccn3)C2)ccn1 [Example 91, 1-cyclopropyl-6-fluoro-7-[(3R)-3-(hydroxymethyl)pyrrolidin-1-yl]-3-({[(2-methylpyridin-4-yl)methyl][(3S)-1-(pyrazin-2-yl)piperidin-3-yl]amino}methyl)-1,4-dihydroquinolin-4-one hydrochloride]
- EC50 ([1]; Homo sapiens, THP1-Dual): < 1 µM
- EC50 [2]: < 1 µM

SMILES: Cc1ccc(N2CCC[C@H](N(Cc3ccnc(C)c3)Cc3cn(C4CC4)c4cc(N5CCC(CO)C5)c(F)cc4c3=O)C2)cn1 (stereo partly drawn) [Example 79, 1-cyclopropyl-6-fluoro-7-[3-(hydroxymethyl)pyrrolidin-1-yl]-3-({[(3S)-1-(6-methylpyridin-3-yl)piperidin-3-yl][(2-methylpyridin-4-yl)methyl]amino}methyl)-1,4-dihydroquinolin-4-one hydrochloride]
- EC50 ([1]; Homo sapiens, THP1-Dual): < 1 µM
- EC50 [2]: < 1 µM

SMILES: Cc1cc(CN(Cc2cn(C3CC3)c3cc(N4CC[C@@H](O)C4)c(F)cc3c2=O)[C@H]2CCCN(c3noc(C)n3)C2)ccn1 [Example 48, 1-cyclopropyl-6-fluoro-7-[(3R)-3-hydroxypyrrolidin-1-yl]-3-({[(3S)-1-(5-methyl-1,2,4-oxadiazol-3-yl)piperidin-3-yl][(2-methylpyridin-4-yl)methyl]amino}methyl)-1,4-dihydroquinolin-4-one hydrochloride]
- EC50 ([1]; Homo sapiens, THP1-Dual): < 1 µM
- EC50 [2]: 1 to 10 µM

SMILES: Cc1ccc(N2CCC[C@H](N(Cc3ccnc(C)c3)Cc3cn(C4CC4)c4cc(N5CC[C@@H](N)C(F)(F)C5)c(F)cc4c3=O)C2)cn1.Cl (single isomer, unassigned) [Example 56, 7-[(4R)-4-amino-3,3-difluoropiperidin-1-yl]-1-cyclopropyl-6-fluoro-3-({[(3S)-1-(6-methylpyridin-3-yl)piperidin-3-yl][(2-methylpyridin-4-yl)methyl]amino}methyl)-1,4-dihydroquinolin-4-one]
- EC50 ([1]; Homo sapiens, THP1-Dual): < 1 µM
- EC50 [2]: < 1 µM

SMILES: Cc1ccc(N2CCC[C@H](N(Cc3ccnc(C)c3)Cc3cn(C4CC4)c4cc(C5C[C@@H](O)CN5)ccc4c3=O)C2)cn1 (stereo partly drawn) [Example 76, 1-cyclopropyl-7-[(4R)-4-hydroxypyrrolidin-2-yl]-3-({[(3S)-1-(6-methylpyridin-3-yl)piperidin-3-yl][(2-methylpyridin-4-yl)methyl]amino}methyl)-1,4-dihydroquinolin-4-one]
- EC50 ([1]; Homo sapiens, THP1-Dual): 1 to 10 µM
- EC50 [2]: 1 to 10 µM

SMILES: Cc1ccc(N2CCC[C@H](N(Cc3ccnc(C)c3)Cc3cn(C4CC4)c4cc(N5CCC6C(CCN6C(=O)OCc6ccc(NC(=O)[C@H](CCCNC(N)=O)NC(=O)[C@@H](NC(=O)CCOCCOCCOCCN=[N+]=[N-])C(C)C)cc6)C5)c(F)cc4c3=O)C2)cn1 (stereo partly drawn) [Example 68A, {4-[(2S)-2-[(2S)-2-(3-{2-[2-(2-azidoethoxy)ethoxy]ethoxy}propanamido)-3-methyl-butanamido]-5-(carbamoylamino)pentanamido]phenyl}methyl 5-[1-cyclopropyl-6-fluoro-3-({[(3S)-1-(6-methylpyridin-3-yl)piperidin-3-yl][(2-methylpyridin-4-yl)methyl]amino}methyl)-4-oxo-1,4-dihydroquinolin-7-yl]-octahydro-1H-pyrrolo[3,2-c]pyridine-1-carboxylate]
- EC50 ([1]; Homo sapiens, THP1-Dual): 1 to 10 µM
- EC50 [2]: > 10 µM

SMILES: Cc1cnc(N2CCC[C@H](N(Cc3ccnc(C)c3)Cc3cn(C4CC4)c4cc(N5CCC[C@H](O)C5)c(F)cc4c3=O)C2)cn1 [Example 81, 1-cyclopropyl-6-fluoro-7-[(3S)-3-hydroxypiperidin-1-yl]-3-({[(3S)-1-(5-methylpyrazin-2-yl)piperidin-3-yl][(2-methylpyridin-4-yl)methyl]amino}methyl)-1,4-dihydroquinolin-4-one]
- EC50 ([1]; Homo sapiens, THP1-Dual): < 1 µM
- EC50 [2]: < 1 µM

SMILES: Cc1cc(CN(Cc2cn(C3CC3)c3cc(N4CCC(CO)C4)c(F)cc3c2=O)[C@H]2CCCN(c3cccnc3)C2)ccn1 (stereo in doubt) [Example 88, 1-cyclopropyl-6-fluoro-7-[(3R)-3-(hydroxymethyl)pyrrolidin-1-yl]-3-({[(2-methylpyridin-4-yl)methyl][(3S)-1-(pyridin-3-yl)piperidin-3-yl]amino}methyl)-1,4-dihydroquinolin-4-one hydrochloride]
- EC50 [1]: < 1 µM
